Measurements from patent US20100255580A1, “Differentiation of Human Embryonic Stem Cells” (LIFESCCAN, INC., priority 2007, published 2010).

What was measured:
[1] = tested on: human embryonic stem cell line H1; experiment: Real-time PCR of definitive endoderm markers, H1 on human serum or […] (Examples 30, 31, 35); format: cell-based
Protocol: Cultures of the human embryonic stem cell line H1 at passage 55 were grown and differentiated on human serum (Sigma, #H1388, MO) coated plates. 0.5 ml of human serum was added to each well of 6 well tissue culture treated dish, incubated for 1 hr at room temperature, and aspirated before adding human embryonic stem cells. After cells reached 80% confluency, they were treated as follows: 2 days 0.5% FBS containing 10 ng/ml mouse recombinant Wnt3a (R&D) or 100 nM GSK-3B inhibitor IX (Catalog #361550, Calbiochem, CA) and 100 ng/mlActivin A (R&D). This was followed by 3 days 2% FBS plus 100 ng/mlActivin A. Cultures were then analyzed by real-time PCR (FIG. 46, panels a & b). […] These findings parallel our findings for human embryonic stem cells cultured on […]™ or human fibronectin coated plates.
The effectiveness of a number of commercially available GSK-3B inhibitors was evaluated in formation of DE from human embryonic stem cells. The following GSK-3B inhibitors were evaluated at 100 nM: GSK-3B inhibitor VIII (Catalog #361549, Calbiochem, CA), GSK-3B inhibitor IX (Catalog #361550, Calbiochem, CA), GSK-3B inhibitor XI (Catalog #361553, Calbiochem, CA), GSK-3B inhibitor XII (Catalog #361554, Calbiochem, CA). […] Control cultures were treated with low serum plus high dose of AA. FIG. 47, panels a and b depicts the gene expression of definitive endoderm markers at day 5. GSK-3B inhibitor IX and XI were both effective in inducing DE formation as compared to GSK-3B inhibitor VIII and XII.
The following combinations of WNT1+AA were tested:
a) 20 ng/ml of WNT1+100 ng/ml AA in 0.5% FBS+DM-F12 for days 1-2 followed by 2% FBS+DM-F12+100 ng/ml AA for day three, b) 20 ng/ml of WNT1+100 ng/ml AA in 0.5% FBS+DM-F12 for days 1-2 followed by 2% FBS+DM-F12+100 ng/ml AA for days 3-5, c) 10 ng/ml of WNT1+100 ng/ml AA in 0.5% FBS+DM-F12 for days 1-2 followed by 2% FBS+DM-F12+100 ng/ml AA for day three, d) 10 ng/ml of WNT1+100 ng/ml AA in 0.5% FBS+DM-F12 for days 1-2 followed by 2% FBS+DM-F12+100 ng/ml AA for days 3-5, e) 20 ng/ml of WNT1+100 ng/ml AA in 0.5% FBS+DM-F12 for days 1-2 followed by 2% FBS+DM-F12+100 ng/ml AA+20 ng/ml of WNT1 for day three, f) 20 ng/ml of WNT1+100 ng/ml AA in 0.5% FBS+DM-F12 for days 1-2 followed by 2% FBS+DM-F12+100 ng/ml AA+20 ng/ml of WNT1 for days 3-5.

[2] = tested on: H9P49 embryonic stem cells; experiment: Real-time PCR of pancreatic endoderm markers, evaluation of retinoic acid analogues; format: cell-based, human
Protocol: At day 5, cells were collected for evaluation by FACS and real-time PCR. […] The resulting definitive endoderm cells at day 5 were exposed to the following media conditions to induce pancreatic endoderm formation: culturing in DMEM/F 12 media supplemented with 2% FBS and 1 μM all-trans retinoic acid (RA) (Catalog#R2625, Sigma, MO), or 0.1-10 μM AM-580 (4-[(5,6,7,8-Tetrahydro-5,5,8,8-tetramethyl-2-naphthalenyl)carboxamido]benzoic acid, Catalog #A8843, Sigma, MO), or 0.1-1 μM TTNPB (4-[(E)-2-(5,6,7,8-Tetrahydro-5,5,8,8-tetramethyl-2-naphthalenyl)-1-propenyl]benzoic acid Arotinoid acid, Catalog #T3757, Sigma, MO) for 3 days. AM-580 and TTNPB are retinoic acid analogs with affinity for retinoic acid receptors. RA treatment was followed by additional three day treatment in DMEM/F12 media supplemented with 2% FBS and 20-50 ng/ml bFGF (Catalog #F0291, Sigma, MO).

[3] = tested on: human embryonic stem cell line H9; experiment: Real-time PCR of marker gene expression, H9 on MEF (Examples 2-7); format: cell-based
Protocol: Cells were harvested at the time points indicated in FIG. 3 and assayed by PCR for the expression of genes shown (FIGS. 3, 4 and 5).
After this time interval, the cells were then treated for six days with combinations of retinoic acid and FGF as outlined in Example 2, then the culture medium was removed and replaced with medium comprising DMEM/F12 with 2% FBS, containing the γ-secretase inhibitors L-685,458 at 10 μM for three days.
Cells were continuously cultured for another 3 to 5 days in basal medium with retinoic acid at 1 μM, alone or with bFGF. RNA samples were harvested from cells at various time points along this process to help evaluate the directed differentiation of the cells. Furthermore, culture medium and factors were regularly removed and replenished throughout the differentiation protocol.
RNA extraction, purification, and cDNA synthesis. RNA samples were purified by binding to a silica-gel membrane (Rneasy Mini Kit, Qiagen, CA) in the presence of an ethanol-containing, high-salt buffer followed by washing to remove contaminants. The RNA was further purified using a TURBO DNA-free kit (Ambion, INC), and high-quality RNA was then eluted in water. Yield and purity were assessed by A260 and A280 readings on a spectrophotometer. cDNA copies were made from purified RNA using an ABI (ABI, CA) high capacity cDNA archive kit.
Real-time PCR amplification and quantitative analysis.
Final data were expressed relative to a calibrator sample.

[4] = tested on: pancreatic endoderm cells derived from human embryonic stem cells; experiment: Passage and expansion of pancreatic endoderm cells in culture; format: cell-based; details: 50 ng/ml FGF10; 6 day culture period
Protocol: The low serum DMEM/F12 contained 0% (v/v) fetal bovine serum (FBS) on day 1, 0.5% (v/v) FBS on day two and 2% (v/v) FBS on each day thereafter. After four days of differentiation, the cells were cultured in low serum DMEM/F12 contained 2% (v/v) FBS, 1 μM retinoic acid and 50 ng/ml bFGF for a total of six more days. After the six days of differentiation, the cells were maintained in culture in low serum DMEM/F12 contained 2% (v/v) FBS in the presence of 50 ng/ml FGF10 for a total of 6 days. During the six-day culture period, the pancreatic endoderm cells were passaged twice and cell population-doubling time is about 36 to 48 hours during this 6-day culture. On days 0, 3, and 6 of culture, Q-PCR was used to measure the expression of marker genes indicative of pancreatic endoderm.

[5] = 1 μM RA followed by exposure to bFGF

For `O=C1NC(=O)C(c2cn(CCCO)c3ncccc23)=C1c1cnccn1` [GSK-3B inhibitor XI], the “inducing DE formation” value ([1]; H1P54 on MATRIGEL, 100 nM for first two days, compared to GSK-3B inhibitor VIII and XII) was “effective”.

For `CC1(C)CCC(C)(C)c2cc(C(=O)Nc3ccc(C(=O)O)cc3)ccc21` [AM-580, 4-[(5,6,7,8-Tetrahydro-5,5,8,8-tetramethyl-2-naphthalenyl)carboxamido]benzoic acid], the “AFP and CDX-2 expression” value ([2]; 10 μM AM-580) was “suppressed” and the “expression of PDX-1” value ([2]; 10 μM AM-580) was “high expression”.

For `CC1=C(/C=C/C(C)=C/C=C/C(C)=C/C(=O)O)C(C)(C)CCC1` [retinoic acid, all-trans retinoic acid, reference compound], the “foregut endoderm markers, such as CDX-2 and AFP” value [2, 5] was “robust expression”, the “pancreatic endoderm markers, such as PDX-1” value [2, 5] was “significantly upregulates” and the “expression of GLUT-2 and PTF1a” value ([3]; 1 μM retinoic acid and bFGF in the absence of activin A) was “increase”. The “expression of Pdx1” value ([3]; activin A or retinoic acid alone) was “did not induce”, the “expression of α-fetoprotein (AFP) and albumin” value ([3]; retinoic acid and FGF-4 for five days after 7 days activin A) was “further increased” and the “level of Pdx1 expression versus activin A treatment alone for 5 days” value ([3]; three days activin A, then 5 days 1 μM retinoic acid and 50 ng/ml bFGF in the absence of activin A) was “approximately 3500 fold”.

B1: Wnt-1: Wnt ligand (PeproTech, NJ, Catalogue #120-17) (protein, UniProt P04628 28-370, looked up)
Proto-oncogene Wnt-1: ANSSGRWWGIVNVASSTNLLTDSKSLQLVLEPSLQLLSRKQRRLIRQNPGILHSVSGGLQSAVRECKWQFRNRRWNCPTAPGPHLFGKIVNRGCRETAFIFAITSAGVTHSVARSCSEGSIESCTCDYRRRGPGGPDWHWGGCSDNIDFGRLFGREFVDSGEKGRDLRFLMNLHNNEAGRTTVFSEMRQECKCHGMSGSCTVRTCWMRLPTLRAVGDVLRDRFDGASRVLYGNRGSNRASRAELLRLEPEDPAHKPPSPHDLVYFEKSPNFCTYSGRLGTAGTAGRACNSSSPALDGCELLCCGRGHRTRTQRVTERCNCTFHWCCHVSCRNCTHTRVLHECL
With B1 the “definitive endoderm markers (Bry, CXCR4, GSC, SOX17, HNF-3B, and GATA-4)” value ([1]; H1P55 on MATRIGEL, 20 ng/ml Wnt1 with 100 ng/ml of AA) was “significant upregulation”.

B2: FGF10: member of the fibroblast growth factor family (protein, UniProt O15520 38-208, looked up)
Fibroblast growth factor 10: QALGQDMVSPEATNSSSSSFSSPSSAGRHVRSYNHLQGDVRWRKLFSFTKYFLKIEKNGKVSGTKKENCPYSILEITSVEIGVVAVKAINSNYYLAMNKKGKLYGSKEFNNDCKLKERIEENGYNTYASFNWQHNGRQMYVALNGKGAPRRGQKTRRKNTSAHFLPMVVHS
B2 was tested, and the “expression of the pancreatic endoderm marker Pdx1” value [4] was “maintained expression”.
